US11091478B2 (Fochon Pharmaceuticals, Ltd., priority 2017, dated 2021)

Tests used:
RS4;11 cells = assay: Cell proliferation assay (MTS), RS4;11 cells, 72 h; format: cell-based; conditions: Homo sapiens, RS4-11, 72 h
Outline: (§1)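 Cells in RPMI-1640 with 10% FBS were seeded at 5000/well, left overnight at 37° C., 5% CO2, then exposed to compound at 10000 down to 1.5 nM (nine concentrations) for 72 h (RS4;11) or 120 h (DOHH2). Viability was read by MTS, 2 h, absorbance at 490/650 nm; IC50 calculated.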

DOHH2 cells = assay: Cell proliferation assay (MTS), DOHH2 cells, 120 h; format: cell-based; conditions: Homo sapiens, DOHH-2, 120 h
Outline: as §1

Structure (SMILES)	IC50 (RS4;11 cells) [nM]	IC50 (DOHH2 cells) [nM]
CC1(C)CCC(CN2CCN(c3ccc(C(=O)NS(=O)(=O)c4cc5c(c([N+](=O)[O-])c4)N[C@H](CN4CCN(C(=O)C6CC6)CC4)CO5)c(Oc4cnc5[nH]ccc5c4)c3)CC2)=C(c2ccc(Cl)cc2)C1 [Example 2-94, (R)-2-((1H-pyrrolo[2,3-b]pyridin-5-yl)oxy)-4-(4-((4′-chloro-5,5-dimethyl-3,4,5,6-tetra-hydro-[1,1′-biphenyl]-2-yl)methyl)piperazin-1-yl)-N-((3-((4-(cyclopropanecarbonyl)piperazin-1-yl)methyl)-5-nitro-3,4-dihydro-2H-benzo[b][1,4]oxazin-7-yl)sulfonyl)benza-mide]	20	1
CC1(C)CCC(CN2CCN(c3ccc(C(=O)NS(=O)(=O)c4cc5c(c([N+](=O)[O-])c4)N[C@@H](CN4CCN(S(C)(=O)=O)CC4)CO5)c(Oc4cnc5[nH]ccc5c4)c3)CC2)=C(c2ccc(Cl)cc2)C1 [Example 2-95, (S)-2-((1H-pyrrolo[2,3-b]pyridin-5-yl)oxy)-4-(4-((4′-chloro-5,5-dimethyl-3,4,5,6-tetra-hydro-[1,1′-biphenyl]-2-yl)methyl)piperazin-1-yl)-N-((3-((4-(methylsulfonyl)piperazin-1-yl)methyl)-5-nitro-3,4-dihydro-2H-ben-zo[b][1,4]oxazin-7-yl)sulfonyl)benzamide]	45	19
CC(=O)N1CCN(C[C@H]2COc3cc(S(=O)(=O)NC(=O)c4ccc(N5CCN(CC6=C(c7ccc(Cl)cc7)CC(C)(C)CC6)CC5)cc4Oc4cnc5[nH]ccc5c4)cc([N+](=O)[O-])c3N2)CC1 [Example 2-96, (S)-2-((1H-pyrrolo[2,3-b]pyridin-5-yl)oxy)-N-((3-((4-acetylpiperazin-1-yl)methyl)-5-nitro-3,4-dihydro-2H-benzo[b][1,4]oxazin-7-yl)sulfonyl)-4-(4-((4′-chloro-5,5-dimethyl-3,4,5,6-tetrahydro-[1,1′-biphenyl]-2-yl)meth-yl)piperazin-1-yl)benzamide]	72	85
CCC(=O)N1CCN(C[C@H]2COc3cc(S(=O)(=O)NC(=O)c4ccc(N5CCN(CC6=C(c7ccc(Cl)cc7)CC(C)(C)CC6)CC5)cc4Oc4cnc5[nH]ccc5c4)cc([N+](=O)[O-])c3N2)CC1 [Example 2-97, (S)-2-((1H-pyrrolo[2,3-b]pyridin-5-yl)oxy)-4-(4-((4′-chloro-5,5-dimethyl-3,4,5,6-tetra-hydro-[1,1′-biphenyl]-2-yl)methyl)piperazin-1-yl)-N-((5-nitro-3-((4-propionylpiperazin-1-yl)methyl)-3,4-dihydro-2H-benzo[b] [1,4]oxazin-7-yl)sulfonyl)benzamide]	23	23
COC(=O)N1CCN(C[C@H]2COc3cc(S(=O)(=O)NC(=O)c4ccc(N5CCN(CC6=C(c7ccc(Cl)cc7)CC(C)(C)CC6)CC5)cc4Oc4cnc5[nH]ccc5c4)cc([N+](=O)[O-])c3N2)CC1 [Example 2-98, methyl (S)-4-((7-(N-(2-((1H-pyrrolo[2,3-b]pyridin-5-y)oxy)-4-(4-((4′-chloro-5,5-dimethyl-3,4,5,6-tetrahydro[1,1′-biphenyl]-2-yl)methyl)piperazin-1-yl)benzoyl)sulfamoyl)-5-nitro-3,4-dihydro-2H-benzo[b][1,4]oxazin-3-yl)methyl)piperazine-1-carboxylate]	17	38
CC1(C)CCC(CN2CCN(c3ccc(C(=O)NS(=O)(=O)c4cc5c(c([N+](=O)[O-])c4)N[C@@H](CN4CCN(C(=O)C6CC6)CC4)CO5)c(Oc4cnc5[nH]ccc5c4)c3)CC2)=C(c2ccc(Cl)cc2)C1 [Example 2-99, (S)-2-((1H-pyrrolo[2,3-b]pyridin-5-yl)oxy)-4-(4-((4′-chloro-5,5-dimethyl-3,4,5,6-tetra-hydro-[1,1′-biphenyl]-2-yl)methyl)piperazin-1-yl)-N-((3-((4-(cyclopropanecarbonyl)piperazin-1-yl)methyl)-5-nitro-3,4-dihydro-2H-benzo[b][1,4]oxazin-7-yl)sulfonyl)benza-mide]	8	20
